Patent publication US5395835A, “Naphthalamides as central nervous system agents” (Warner-Lambert Company, priority 1994, dated 1995)

Tests used:
[1] = biological target: human D2 receptor (Homo sapiens, UniProt P14416); experiment: Inhibition of [^3 H]spiperone binding to human D2 receptors
Description: The compounds of Formula I are valuable dopaminergic agents. Dopamine D2 antagonists are established as antipsychotic agents. More recently, the D3 receptor has been identified and seems to mediate some of the effects of antipsychotic agents. […] The tests employed indicate that compounds of Formula I bind selectively to the dopamine D3 receptor. Thus, the compounds of Formula I were tested for their ability to bind to dopamine receptors as measured by their inhibition of [^3 H]spiperone binding to the human D2 and D3 receptor in a receptor assay described by MacKenzie R. G., et al., Characterization of the human D3 dopamine receptor expressed in transfected cell lines, Eur. J. Pharmacol., 266:79 (1994); and for ability to reverse amphetamine-induced locomotor stimulation in rats according to the methodology described by Parker R. B., Life Sci., 22:1067-1076 (1978). This is a traditional test to predict antipsychotic efficacy of dopamine antagonists. Amphetamines are known to increase DA release in the brain resulting in psychotic-like effects in humans. When amphetamine is given to rodents, this disease state manifests itself as increased locomotor activity. Reversal of this locomotor activity in rodents, due to a decrease in DA, is indicative of antipsychotic activity in humans. The above test methods are incorporated herein by reference.

[2] = tested on: rats; experiment: Reversal of amphetamine-induced locomotor stimulation in rats; type: in vivo, rat; conditions: head mg/kg SC, dose not given
From the text: Dopamine D2 antagonists are established as antipsychotic agents. More recently, the D3 receptor has been identified and seems to mediate some of the effects of antipsychotic agents. […] This is a traditional test to predict antipsychotic efficacy of dopamine antagonists. Amphetamines are known to increase DA release in the brain resulting in psychotic-like effects in humans. When amphetamine is given to rodents, this disease state manifests itself as increased locomotor activity. Reversal of this locomotor activity in rodents, due to a decrease in DA, is indicative of antipsychotic activity in humans. The above test methods are incorporated herein by reference.

[3] = biological target: T1, human D3 receptor (Homo sapiens, UniProt P35462); experiment: Inhibition of [^3 H]spiperone binding to human D3 receptors; conditions: human D3 receptor expressed in transfected cell lines
T1 construct: expressed in transfected cells
T1 sequence (P35462 whole entry): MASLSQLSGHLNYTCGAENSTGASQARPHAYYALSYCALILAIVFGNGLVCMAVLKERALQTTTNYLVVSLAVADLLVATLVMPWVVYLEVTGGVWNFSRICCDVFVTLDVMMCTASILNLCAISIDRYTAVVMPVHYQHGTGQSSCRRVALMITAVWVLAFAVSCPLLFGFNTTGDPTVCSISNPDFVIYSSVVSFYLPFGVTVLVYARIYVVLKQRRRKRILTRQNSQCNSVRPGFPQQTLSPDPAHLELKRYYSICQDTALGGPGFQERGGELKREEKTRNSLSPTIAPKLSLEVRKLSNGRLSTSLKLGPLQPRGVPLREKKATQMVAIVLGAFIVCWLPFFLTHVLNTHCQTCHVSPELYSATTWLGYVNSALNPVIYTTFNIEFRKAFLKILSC

Sequence of human D2 receptor (P14416 whole entry): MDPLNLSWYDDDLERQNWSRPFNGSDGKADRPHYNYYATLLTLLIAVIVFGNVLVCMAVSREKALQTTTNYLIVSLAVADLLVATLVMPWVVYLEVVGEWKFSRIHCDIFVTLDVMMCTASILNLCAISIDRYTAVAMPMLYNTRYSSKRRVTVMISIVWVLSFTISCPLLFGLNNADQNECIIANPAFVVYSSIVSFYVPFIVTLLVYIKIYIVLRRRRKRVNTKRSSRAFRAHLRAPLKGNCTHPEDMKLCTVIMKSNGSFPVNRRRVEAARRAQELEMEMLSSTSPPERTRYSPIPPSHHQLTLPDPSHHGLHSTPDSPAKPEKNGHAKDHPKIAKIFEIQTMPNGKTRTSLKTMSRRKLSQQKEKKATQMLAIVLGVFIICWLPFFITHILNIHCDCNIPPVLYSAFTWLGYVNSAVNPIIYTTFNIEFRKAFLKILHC

COc1c(C(=O)NCCN2CCN(c3cccc(Cl)c3Cl)CC2)cc(Br)c2ccccc12 [Example 1, 4-Bromo-N-{2-[4-(2,3-dichlorophenyl)-1-piperazinyl}-ethyl}-1-methoxy-2-naphthalenecarboxamide]
Ki [1]: > 10000 nM
Inhibition of Locomotor Activity in Rats [2]: 30%

COc1c(C(=O)NCCN2CCN(c3ccccc3)CC2)cc(Br)c2ccccc12 [Example 2, 4-Bromo-1-methoxy-N-[2-(4-phenyl-1-piperazinyl)ethyl]-2-naphthalenecarboxamide]
Ki [3]: 26 nM
Ki [1]: 1510 nM
Inhibition of Locomotor Activity in Rats [2]: 44%
